Measured values as given in patent US6352988B2, “Indane or dihydroindole derivatives” (H. Lundbeck A/S, priority 1996, dated 2002).

What follows are compounds tested against T1, dopamine D4 receptors in cloned human dopamine receptor subtype 4.2 membranes (Homo sapiens, UniProt P21917, DEL271-302) (assay: 3H-YM-09151-2 binding (affinity for dopamine D4 receptors)). Settings: 3H-YM-09151-2, cloned human D4.2 membranes; * means that the test result is preliminary; read-out: D4-bind. IC50.
T1 sequence (P21917 with tags, fused parts or gaps DEL271-302): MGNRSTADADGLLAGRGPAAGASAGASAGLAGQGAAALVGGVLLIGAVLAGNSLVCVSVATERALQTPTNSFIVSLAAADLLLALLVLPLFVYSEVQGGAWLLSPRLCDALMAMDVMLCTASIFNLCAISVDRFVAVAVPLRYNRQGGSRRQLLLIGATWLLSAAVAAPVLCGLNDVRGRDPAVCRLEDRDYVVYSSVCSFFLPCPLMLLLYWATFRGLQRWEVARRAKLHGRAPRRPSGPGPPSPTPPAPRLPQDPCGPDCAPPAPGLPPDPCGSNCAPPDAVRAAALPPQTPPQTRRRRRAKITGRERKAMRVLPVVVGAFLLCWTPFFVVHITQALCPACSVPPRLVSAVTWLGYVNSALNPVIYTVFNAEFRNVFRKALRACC
Procedure: By this method the inhibition by drugs of the binding of the dopamine D4 antagonist ^3H-YM-09151-2 to dopamine D4 receptors in cloned human dopamine receptor subtype 4.2 membranes is determined in vitro. Accordingly, this is a test for affinity for dopamine D4 receptors. The test is performed using a preparation of cloned dopamine D4 cell membranes CRM-016®, Dupharma A/S, Denmark, in accordance with the product specifications.

Row | SMILES | IC50
1 | COc1ccc2c(c1)C(CN1CC=C(c3c[nH]c4ccccc34)CC1)CC2 (centres unmarked) [Compound 5d, 3-[1-(6-methoxyindan-1-yl)methyl-1,2,3,6-tetrahydropyridin-4-yl]-1H-indole] | 20 nM
2 | c1ccc2c(c1)CCC2CN1CCC(c2c[nH]c3ccccc23)CC1 (centres unmarked) [Compound 5b, 3-[1-(1-Indanylmethyl)piperindin-4-yl]-1H-indole] | 5 nM
3 | CC(=O)N1CC(CCN2CC=C(c3c[nH]c4cc(Cl)ccc34)CC2)c2cc(C)ccc21 (centres unmarked) [Compound 20m, 3-[1-[2-(1-Acetyl-5-methyl-2,3-dihydro-1H-indol-3-yl)ethyl]-1,2,3,6-tetrahydropyridin-4-yl]-6-chloro-1H-indole] | 8.4 nM
4 | CC(=O)N1CC(CCN2CCC(c3c[nH]c4cc(Cl)ccc34)CC2)c2ccccc21 (centres unmarked) [Compound 20b, 3-[1-[2-(1-Acetyl-2,3-dihydro-1H-indol-3-yl)ethyl]piperidin-4-yl]-6-chloro-1H-indole] | 6.7 nM
5 | c1ccc2c(c1)CC(CN1CCN(c3ccc4[nH]ccc4c3)CC1)C2 [Compound 11f, 5-[4-(Indan-2-yl)methylpiperazin-1-yl]-1H-indole] | 1.6 nM
6 | Clc1ccc2c(C3=CCN(CCCC4CCc5ccccc54)CC3)c[nH]c2c1 (centres unmarked) [Compound 8g, 6-Chloro-3-[1-[3-(indan-1-yl)propan-1-yl]-1,2,3,6-tetrahydropyridin-4-yl]-1H-indole] | 14 nM
7 | Clc1ccc2c(C3=CCN(CCC4CNc5ccccc54)CC3)c[nH]c2c1 (centres unmarked) [Compound 30a, 6-Chloro-3-[1-[2-(2,3-dihydro-1H-indol-3-yl)ethyl]-1,2,3,6-tetrahydropyridin-4-yl]-1H-indole] | 9.9 nM
8 | CC(C)(C)OC(=O)N1CC(CCN2CC=C(c3c[nH]c4cc(Cl)ccc34)CC2)c2ccccc21 (centres unmarked) [Compound 20i, 3-[1-[2-(1-tert-Butoxycarbonyl-2,3-dihydro-1H-indol-3-yl)ethyl]-1,2,3,6-tetrahydropyridin-4-yl]-6-chloro-1H-indole] | 2.9 nM
9 | CC(=O)Nc1ccc2c(c1)C(CCN1CC=C(c3c[nH]c4cc(Cl)ccc34)CC1)CC2 (centres unmarked) [Compound 18c] | 41 nM
10 | CC(=O)N1CC(CCN2CC=C(c3c[nH]c4c(Cl)cccc34)CC2)c2ccccc21 (centres unmarked) [Compound 20f, 3-[1-[2-(1-Acetyl-2,3-dihydro-1H-indol-3-yl)ethyl]-1,2,3,6-tetrahydropyridin-4-yl]-7-chloro-1H-indole] | 3.2 nM
11 | CC(=O)N1CC(CCCN2CC=C(c3c[nH]c4cc(Cl)ccc34)CC2)c2ccccc21 (centres unmarked) [Compound 20k, 3-[1-[3-(1-Acetyl-2,3-dihydro-1H-indol-3-yl)propyl]-1,2,3,6-tetrahydropyridin-4-yl]-6-chloro-1H-indole] | 10 nM
12 | Clc1ccc2c(ccn2C2CCN(CCC3Cc4ccccc4C3)CC2)c1 [Compound 29a, 5-Chloro-1-[1-[2-(indan-2-yl)ethyl]piperidin-4-yl]-1H-indole] | 6.9 nM
13 | CC(=O)Nc1ccc2c(c1)CCC2CN1CC=C(c2c[nH]c3cc(Cl)ccc23)CC1 (centres unmarked) [Compound 6d, 6-Chloro-3-[1-(5-acetylamino-1-indanylmethyl)-1,2,3,6-tetrahydropyridin-4-yl]-1H-indole] | 30 nM
14 | CC(=O)N1CC(CCN2CC=C(c3c[nH]c4cc5c(cc34)OCO5)CC2)c2ccccc21 (centres unmarked) [Compound 20h, 3-[1-[2-(1-Acetyl-2,3-dihydro-1H-indol-3-yl)ethyl]-1,2,3,6-tetrahydropyridin-4-yl]-5,6-methylenedioxy-1H-indole] | 30 nM
15 | C1=C(n2ccc3ccccc32)CCN(CCC2Cc3ccccc3C2)C1 [Compound 28b, 1-[1-[2-(Indan-2-yl)ethyl]-1,2,3,6-tetrahydropyridin-4-yl]-1H-indole] | 14 nM
16 | COc1cccc2c1C(CN1CC=C(c3c[nH]c4cc(Cl)ccc34)CC1)CC2 (centres unmarked) [Compound 5c, 6-Chloro-3-[1-(7-methoxyindan-1-yl)methyl-1,2,3,6-tetrahydropyridin-4-yl]-1H-indole] | 32 nM
17 | Fc1ccc2[nH]cc(C3CCN(CCC4CCc5ccccc54)CC3)c2c1 (centres unmarked) [Compound 8c, 5-fluoro-3-[1-[2-(indan-1-yl)ethyl]-piperidin-4-yl]-1H-indole] | 2.3 nM
18 | Clc1ccc2c(ccn2C2=CCN(CCC3Cc4ccccc4C3)CC2)c1 [Compound 28a, 5-Chloro-1-[1-[2-(indan-2-yl)ethyl]-1,2,3,6-tetrahydropyridin-4-yl]-1H-indole] | 160 nM
19 | CC(=O)Nc1ccc2c(c1)C(CCCN1CC=C(c3c[nH]c4cc(Cl)ccc34)CC1)CC2 (centres unmarked) [Compound 18d, 6-Chloro-3-[1-[3-(6-acetylaminoindan-1-yl)propan-1-yl]-1,2,3,6-tetrahydropyridin-4-yl]-1H-indole] | 7.3 nM

Row | SMILES | IC50
20 | Clc1cccc2c(C3=CCN(CC4Cc5ccccc5C4)CC3)c[nH]c12 [Compound 11c, 7-Chloro-3-[1-(indan-2-yl)methyl-1,2,3,6-tetrahydropyridin-4-yl]-1H-indole] | 3.8 nM
21 | CC(=O)Nc1cccc2c1CC(CN1CC=C(c3c[nH]c4cc(Cl)ccc34)CC1)C2 (centres unmarked) [Compound 18a, 6-Chloro-3-[1-(4-acetylaminoindan-2-yl)methyl-1,2,3,6-tetrahydropyridine-4-yl]-1H-indole] | 7.5 nM
22 | c1ccc2c(c1)CC(CCN1CCN(c3cccc4[nH]ccc34)CC1)C2 [Compound 25a, 4-[4-[2-(Indan-2-yl)ethyl]piperazin-1-yl]-1H-indole] | 2.7 nM
23 | Clc1ccc2c(C3CCN(CC4Cc5ccccc5C4)CC3)c[nH]c2c1 [Compound 21a, 6-Chloro-3-[1-(indan-2-ylmethyl)piperidin-4yl]-1H-indole] | 0.48 nM
24 | N#Cc1ccc2c(c1)C(CN1CC=C(c3c[nH]c4cc(Cl)ccc34)CC1)CC2 (centres unmarked) [Compound 6a, 6-Chloro-3-[1-(6-cyano-1-indanylmethyl)-1,2,3,6-tetrahydropyridin-4-yl]-1H-indole] | 6.8 nM
25 | Clc1ccc2c(C3CCN(CCCCC4CCc5ccccc54)CC3)c[nH]c2c1 (centres unmarked) [Compound 8f, 6-Chloro-3-[1-[4-(indan-1-yl)butan-1-yl)-piperidin-4-yl]-1H-indole] | 12 nM
26 | Clc1ccc2c(C3=CCN(CC4CCc5ccc(Br)cc54)CC3)c[nH]c2c1 (centres unmarked) [Compound 6e, 6-Chloro-3-[1-(6-bromo-1-indanylmethyl)-1,2,3,6-tetrahydropyridin-4-yl]-1H-indole] | 84 nM
27 | C1=C(c2c[nH]c3ccccc23)CCN(CC2CCc3ccccc32)C1 (centres unmarked) [Compound 5a, 3-[1-(1-Indanylmethyl)-1,2,3,6-tetrahydropyridin-4-yl]-1H-indole] | 3.5 nM
28 | CC(=O)N1CC(CCN2CCN(c3ccc4[nH]ccc4c3)CC2)c2ccccc21 (centres unmarked) [Compound 20j, 5-[4-[2-(1-Acetyl-2,3-dihydro-1H-indol-3-yl)ethyl]piperazin-1-yl]-1H-indole] | 6.9 nM
29 | Clc1ccc2c(C3=CCN(CCCCC4CCc5ccccc54)CC3)c[nH]c2c1 (centres unmarked) [Compound 8h] | 34 nM
30 | Fc1ccc2[nH]cc(C3CCN(CCCCC4CCc5ccccc54)CC3)c2c1 (centres unmarked) [Compound 8e, 5-fluoro-3-[1-[4-(indan-1-yl)butan-1-yl]-piperidin-4-yl]-1H-indole] | 8.3 nM
31 | O=CN1CC(CCN2CC=C(c3c[nH]c4cc(Cl)ccc34)CC2)c2ccccc21 (centres unmarked) [Compound 20c, 6-Chloro-3-[1-[2-(1-formyl-2,3-dihydro-1H-indol-3-yl)ethyl]-1,2,3,6-tetrahydropyridin-4yl]-1H-indole] | 2.4 nM
32 | CC(=O)N1CC(CCN2CC=C(c3c[nH]c4cc(Cl)ccc34)CC2)c2ccccc21 (centres unmarked) [Compound 20a, 3-[1-[2-(1-Acetyl-2,3-dihydro-1H-indol-3-yl)ethyl]-1,2,3,6-tetrahydropyridin-4-yl]-6-chloro-1H-indole] | 3.1 nM
33 | N#Cc1ccc2c(c1)C(CN1CCC(c3c[nH]c4cc(Cl)ccc34)CC1)CC2 (centres unmarked) [Compound 6b, 6-Chloro-3-[1-(6-cyano-1-indanylmethyl)piperidin-4-yl]-1H-indole] | 3.3 nM
34 | Clc1ccc2c(C3=CCN(CC4Cc5ccccc5C4)CC3)c[nH]c2c1 [Compound 11a, 6-Chloro-3-[1-(indan-2-yl)methyl-1,2,3,6-tetrahydropyridin-4-yl]-1H-indole] | 2.8 nM
35 | CC(=O)N1CC(CCN2CC=C(c3c[nH]c4cc(Cl)ccc34)CC2)c2ccccc21 (single isomer, unassigned; (+)) [Compound 34a] | 4 nM
36 | CC(=O)N1CC(CCN2CC=C(c3c[nH]c4c(Cl)c(Cl)ccc34)CC2)c2ccccc21 (centres unmarked) [Compound 20g, 3-[1-[2-(1-Acetyl-2,3-dihydro-1H-indol-3-yl)ethyl]-1,2,3,6-tetrahydropyridin-4-yl]-6,7-dichloro-1H-indole] | 16 nM
37 | CC(=O)Nc1cccc2c1CC(CN1CCC(c3c[nH]c4cc(Cl)ccc34)CC1)C2 (centres unmarked) [Compound 18b, 6-Chloro-3-[1-(4-acetylaminoindan-2-yl)methylpiperidin-4-yl]-1H-indole] | 4.3 nM

Same assay, conditions: at 50 nM; 3H-YM-09151-2, cloned human D4.2 membranes; read-out: D4-bind. % inhibition of binding at 50 nM

Row | SMILES | inhibition at 0.05 µM
38 | CC(=O)N1CC(CCN2CC=C(c3c[nH]c4cc(Cl)ccc34)CC2)c2cc(Br)ccc21 (centres unmarked) [Compound 20e, 3-[1-[2-(1-Acetyl-5-bromo-2,3-dihydro-1H-indol-3-yl)ethyl]-1,2,3,6-tetrahydropyridin-4yl]-6-chloro-1H-indole] | 21%
